# Experimental data as given in patent US9676771B2, “Compounds for inhibiting drug-resistant strains of HIV-1 integrase” (priority 2013, dated 2017).
# Where two headings read alike, the source gives them in different places.
# How the values were obtained:
# HIV-1 integrase = HIV-1 integrase (Human immunodeficiency virus type 1 group M subtype B, UniProt P12497); assay: biochemical; assay type: biochemical
# Procedure: In Vitro Integrase Assay.
# Integrase reactions were carried out by adding drugs or an equivalent volume of 100% dimethyl sulfoxide (DMSO; used as the drug solvent) to a mixture of 20 nM DNA and 400 nM integrase in 50 mM morpholinepropanesulfonic acid (pH 7.2), 7.5 mM MgCl2, and 14 mM 2-mercaptoethanol. Reactions were performed at 37° C. for 2 h and quenched by the addition of an equal volume of loading buffer (formamide containing 1% sodium dodecyl sulfate, 0.25% bromophenol blue, and xylene cyanol). […] Dried gels were visualized using a Typhoon 8600 (GE Healthcare, Piscataway, N.J.). Densitometric analyses were performed using ImageQuant 5.1 software from GE Healthcare.
# [1] = test system: HIV-1 constructs containing wild-type IN; assay: microbe, parasite or virus in culture; assay type: cell-based; settings: for EC50: Human immunodeficiency virus 1, WT IN, read-out: EC50 (nM, WT)
# From the text: (§1) Single-Round HIV-1 Infectivity Assay.
# (§2) Human embryonyl kidney cell culture cell line 293 was acquired from the American type Culture Collection (ATCC).
# (§3) The virus-containing supernatants were then harvested, clarified by low-speed centrifugation, filtrated, and diluted for preparation in infection assays. […] Activity was normalized to infectivity in the absence of target compounds. KaleidaGraph (Synergy Software, Reading, Pa.) was used to perform regression analysis on the data. EC50 values were determined from the fit model.
# [2] = test system: HIV-1 constructs containing mutant IN N155H; assay: microbe, parasite or virus in culture; assay type: cell-based; settings: Human immunodeficiency virus 1
# From the text: as §1, §2, §3
# (§4) pNLNgoMIVR^−ΔEnv.LUC has been described previously (Zhao et al. 2008). The integrase codon reading frame was removed from pNLNgoMIVR^−ΔEnv LUC (between KpnI and SalI sites) and placed between the KpnI and SalI sites of pBluescript II KS+. Using that construct as the wild-type template, we prepared the following HIV-1 Integrase-resistant mutants via the QuikChange II XL (Stratagene, La Jolla, Calif.) site-directed mutagenesis protocol: H51Y, T66I, E92Q, G118R, Y143R, Q148H, Q148K, N155H, R263K, G140S+Q148H, G140A+Q148K, E138K+Q148K, and H51Y+R263K. The following sense with cognate antisense (not shown) oligonucleotides (Integrated DNA Technologies, Coralville, Iowa) were used in the mutagenesis: H51Y, 5′-[…]-3; T66I, 5′-[…]-3′; E92Q, 5′-[…]-3′; G118R, 5′-[…]-3′; E138K, 5′-[…]-3; G140A, 5′-[…]-3; G140S, 5′-[…]-3′; Y143R, 5′-[…]-3′; Q148H, 5′-[…]-3′; Q148K, 5′-[…]-3; N155H, 5′-[…]-3′; R263K 5′-[…]-3′. The double mutation G140S+Q148H was constructed by using the previously generated Q148H mutant and the appropriate oligonucleotide for the 2nd mutation, G140S. The double mutation G140A+Q148K was made by using the Q148K mutant and the appropriate oligonucleotide for the 2nd mutation, G140A. The double mutation E138K+Q148K was made by using the Q148K mutant and the appropriate oligonucleotide for the 2nd mutation, E138K. The double mutation H51Y+R263K was constructed by using the previously generated H51Y mutant and the appropriate oligonucleotides for the 2nd mutation, R263K. The DNA sequence of each construct was verified independently by DNA sequence determination. […] These DNA sequences were additionally checked independently by DNA sequence determination.
# [3] = test system: HIV-1 constructs containing mutant IN Y143R; assay: microbe, parasite or virus in culture; assay type: cell-based; settings: Human immunodeficiency virus 1
# From the text: as §1, §2, §3, §4
# in vitro = assay type: cell-based, human; settings: human, 50% reduction in the level of ATP in HOS cells
# Procedure: Cellular Cytotoxicity Assay.
# On the day of the screen, cells were treated with compounds at the appropriate concentration range chosen and incubated at 37° C. for 48 hrs. Cytotoxicity was measured by monitoring ATP levels via a luciferase reporter assay. Cells were lysed in 50 μL cell lysis buffer (PerkinElmer, Waltham, Mass.) and shaken at 700 rpm at room temperature for 5 mins After the addition of 50 μL of ATPlite buffer (PerkinElmer) directly onto the lysed cells and shaking at 700 rpm at room temperature for 5 mins, ATP levels were monitored by measuring luciferase activity using a microplate reader. Activity was normalized to cytotoxicity in the absence of target compounds. KaleidaGraph (Synergy Software, Reading, Pa.) was used to perform regression analysis on the data. CC50 values were determined from the fit model.
# [4] = test system: HIV-1 constructs containing mutant IN G140S-Q148H; assay: microbe, parasite or virus in culture; assay type: cell-based; settings: Human immunodeficiency virus 1; Table 3; G140S-Q148H double mutant; read-out: EC50 (nM, IN Mutants) SH
# From the text: as §1, §2, §3, §4
# [5] = Table 1, 3′-processing, read-out: IC50 Values 3′-Processing
# [6] = Table 1, strand transfer, read-out: IC50 Values Strand transfer
# [7] = Table 3, read-out: EC50 (nM, IN Mutants) N155H
# [8] = Table 3, read-out: EC50 (nM, IN Mutants) Y143R
# [9] = Table 4, 3′-processing, read-out: IC50 (3^+-Processing)
# [10] = Table 4, strand transfer, read-out: IC50 (Strand Transfer)
# [11] = Table 5, read-out: EC50 (nM, IN Mutants) Y143R
SMILES,EC50 ([1]; Table 3) [nM],"Si (selectivity index) ([1]; Table 3, ratio of CC50 to EC50)","EC50 [2, 7] [nM]","EC50 [3, 8] [nM]",CC50 (in vitro; Table 3) [µM],IC50 (HIV-1 integrase; [9]) [µM],IC50 (HIV-1 integrase; [10]) [µM],further results
"O=C(NCc1ccc(F)cc1)c1cc2cccnc2n(O)c1=O [XZ393, N-(4-fluorobenzyl)-1-hydroxy-2-oxo-1,2-dihydro-1,8-naphthyridine-3-carboxamide]",25.1 ± 9.4,">9,960",268 ± 89,24.1 ± 5.3,> 250,–,–,IC50 (HIV-1 integrase; [5]): 8.9 ± 1 µM; IC50 (HIV-1 integrase; [6]): 0.016 ± 0.003 µM
"COc1ccc2c(O)c(C(=O)NCc3ccc(F)cc3F)c(=O)n(O)c2n1 [XZ405, N-(2,4-difluorobenzyl)-1,4-dihydroxy-7-methoxy-2-oxo-1,2-dihydro-1,8-naphthyridine-3-carboxamide]",–,–,–,–,–,32 ± 4,0.033 ± 0.005,"EC50 ([1]; Table 5): 186 ± 23.2 nM; SI ([1]; Table 5, ratio of CC50 to EC50): 65; EC50 [3, 11]: 215 ± 31 nM; CC50 (in vitro; Table 5): 12.1 ± 4.6 µM"
"O=C(NCc1ccc(F)c(Cl)c1)c1cc2cccnc2n(O)c1=O [XZ391, N-(3-chloro-4-fluorobenzyl)-1-hydroxy-2-oxo-1,2-dihydro-1,8-naphthyridine-3-carboxamide]",37.5 ± 14.5,–,90.3 ± 5.6,33.9 ± 5.5,> 250,–,–,"IC50 (HIV-1 integrase; [5]): 9.4 ± 1.5 µM; IC50 (HIV-1 integrase; [6]): 0.014 ± 0.003 µM; Si (selectivity index) [1]: >6,667"
"O=C(NCc1ccc(F)c(F)c1)c1cc2cccnc2n(O)c1=O [XZ392, N-(3,4-difluorobenzyl)-1-hydroxy-2-oxo-1,2-dihydro-1,8-naphthyridine-3-carboxamide]",61.6 ± 13.8,–,2200 ± 61,39.7 ± 12.5,> 250,–,–,"IC50 (HIV-1 integrase; [5]): 13.6 ± 1.8 µM; IC50 (HIV-1 integrase; [6]): 0.017 ± 0.003 µM; Si (selectivity index) [1]: >4,058"
"O=C(NCc1ccc(F)cc1F)c1c(Nc2ccccc2)c2cccnc2n(O)c1=O [XZ377, N-(2,4-difluorobenzyl)-1-hydroxy-2-oxo-4-(phenylamino)-1,2-dihydro-1,8-naphthyridine-3-carboxamide]",14.2 ± 1.9,–,110 ± 17.2,24.9 ± 6.4,> 250,–,–,"IC50 (HIV-1 integrase; read-out: IC50 (3^+-Processing)): 6.9 ± 1.1 µM; IC50 (HIV-1 integrase; read-out: IC50 (Strand Transfer)): 0.018 ± 0.006 µM; Si (selectivity index) [1]: >17,857"
"N#Cc1ccc(-c2ccc(Nc3c(C(=O)NCc4ccc(F)cc4F)c(=O)n(O)c4ncccc34)cc2)cc1 [XZ388, 4-((4′-cyano-[1,1′-biphenyl]-4-yl)amino)-N-(2,4-difluorobenzyl)-1-hydroxy-2-oxo-1,2-dihydro-1,8-naphthyridine-3-carboxamide]",123 ± 20.7,">2,033",–,346 ± 38.3,> 250,70 ± 7,0.13 ± 0.03,–
"COC(=O)[C@@H](C)Nc1c(C(=O)NCc2ccc(F)cc2F)c(=O)n(O)c2ncccc12 [XZ395, (R)-methyl 2-((3-((2,4-difluorobenzyl)carbamoyl)-1-hydroxy-2-oxo-1,2-dihydro-1,8-naphthyridin-4-yl)amino)propanoat]",11.3 ± 4.7,–,–,8.1 ± 1.7,> 250,–,–,EC50 [4]: 89.3 ± 26.3 nM
"COC(=O)CNc1c(C(=O)NCc2ccc(F)cc2F)c(=O)n(O)c2nc(OC)ccc12 [XZ407, methyl 2-((3-((2,4-difluorobenzyl)carbamoyl)-1-hydroxy-7-methoxy-2-oxo-1,2-dihydro-1,8-naphthyridin-4-yl)amino)acetate]",–,–,–,–,–,20 ± 2,0.042 ± 0.005,"EC50 ([1]; Table 5): 32 ± 13 nM; SI ([1]; Table 5, ratio of CC50 to EC50): 366; EC50 ([2]; Table 5, read-out: EC50 (nM, IN Mutants) N155H): 31300 ± 320 nM; EC50 [3, 11]: 51.5 ± 12.6 nM; CC50 (in vitro; Table 5): 11.7 ± 3.1 µM"
"Nc1ccc(-c2ccc(Nc3c(C(=O)NCc4ccc(F)cc4F)c(=O)n(O)c4ncccc34)cc2)cc1 [XZ387, 4-((4′-amino-[1,1′-biphenyl]-4-yl)amino)-N-(2,4-difluorobenzyl)-1-hydroxy-2-oxo-1,2-dihydro-1,8-naphthyridine-3-carboxamide]",6.3 ± 2.4,">25,000",423 ± 168,102 ± 1.4,> 250,80 ± 11,0.13 ± 0.02,–
"CCOC(=O)[C@@H]1CCCN1c1c(C(=O)NCc2ccc(F)cc2F)c(=O)n(O)c2ncccc12 [XZ404, (S)-ethyl 1-(3-((2,4-difluorobenzyl)carbamoyl)-1-hydroxy-2-oxo-1,2-dihydro-1,8-naphthyridin-4-yl)pyrrolidine-2-carboxylate]",590 ± 71.8,31,–,1660 ± 920,18.2 ± 7.1,86 ± 6,0.31 ± 0.04,–
"Nc1c(C(=O)NCc2ccc(F)cc2F)c(=O)n(O)c2ncc(CCCC3CCCCC3)cc12 [XZ428, 4-Amino-6-(3-cyclohexylpropyl)-N-(2,4-difluorobenzyl)-1-hydroxy-2-oxo-1,2-dihydro-1,8-naphthyridine-3-carboxamide]",–,–,–,–,–,–,–,"IC50 (HIV-1 integrase; Table 7, 3′-processing, read-out: IC50 (μM) 3′-P): 289 ± 49 µM; IC50 (HIV-1 integrase; Table 7, strand transfer, read-out: IC50 (μM) ST): 3.28 ± 0.468 µM; EC50 ([1]; Table 8): 53.4 nM; EC50 ([2]; Table 8, read-out: EC50 (nM, IN mutants) N155H): 146 nM; EC50 ([3]; Table 8, read-out: EC50 (nM, IN mutants) Y143R): 112 nM; CC50 (in vitro; Table 8): 27.4 µM"
"O=C(NCc1ccc(F)cc1F)c1c(Nc2ccc3c(c2)Cc2ccccc2-3)c2cccnc2n(O)c1=O [XZ386, 4-((9H-fluoren-2-yl)amino)-N-(2,4-difluorobenzyl)-1-hydroxy-2-oxo-1,2-dihydro-1,8-naphthyridine-3-carboxamide]",171 ± 56.8,">1,462",–,448 ± 28.1,> 250,46 ± 8,0.84 ± 0.21,–
"O=C(NCc1ccc(F)cc1F)c1c(Nc2ccc(-c3ccccc3)cc2)c2cccnc2n(O)c1=O [XZ385, 4-([1,1′-biphenyl]-4-ylamino)-N-(2,4-difluorobenzyl)-1-hydroxy-2-oxo-1,2-dihydro-1,8-naphthyridine-3-carboxamide]",372 ± 63,>673,–,361 ± 84,> 250,52 ± 5,0.34 ± 0.08,–
"COC(=O)[C@H](Nc1c(C(=O)NCc2ccc(F)cc2F)c(=O)n(O)c2ncccc12)c1ccccc1 [XZ397, (R)-methyl 2-((3-((2,4-difluorobenzyl)carbamoyl)-1-hydroxy-2-oxo-1,2-dihydro-1,8-naphthyridin-4-yl)amino)-2-phenylacetate]",7.4 ± 3.3,–,21.6 ± 3.7,–,> 250,–,–,–
